The test system of experiment [1] is amphotropic murine leukemia virus. Put plainly: AMLV pseudotyped virus entry counter-screen, same infection protocol. Type of experiment: cell-based. As to conditions: peptide library screen; cell entry inhibition vs uninhibited control. The gist of the method:
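Huh7 hepatoma cells pre-incubated with peptide 1 h at 37 °C, then infected with AMLV pseudotyped virus and cultured 72 h at 37 °C, 5% CO2 before luciferase read-out. Peptides screened at 100 ug/ml, then 10-point 3-fold titrations from 100 ug/ml.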

Another experiment deals with HCV pseudoparticles. Put plainly: HCV pseudoparticle (HCVpp) entry assay in Huh7 hepatoma cells, luciferase readout. Type of experiment: cell-based, hepatitis C virus. As to conditions: peptide library screen, first screened at 100 ug/ml; cell entry inhibition vs uninhibited control. Summed up: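 Huh7 cells were pre-treated with peptide for 1 h at 37 °C before exposure to HCV E1/E2-pseudotyped HIV luciferase particles made in 293T cells, followed by 72 h culture and luciferase readout. Peptides were tested at 10 points, 3-fold, from 100 ug/ml; particles lacking envelope served as non-specific entry control.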

Ends that are not written are not given here.

In the case of “V-H-K-F-N-S-S-G-C-P-E-R-M-A-S-C [SEQ ID NO: 39]”, the AMLVpp % inh in experiment [1] is −15%. Besides, the HCVpp % inh in the experiment on HCV pseudoparticles is reported as −11%.
As to “V-M-L-L-F-A-G-V-D-G-G-T-Y-V-T-G [SEQ ID NO: 29]”, in experiment [1], the AMLVpp % inh is listed as 11%. Also, the HCVpp % inh in the experiment with HCV pseudoparticles is reported as −22%.
In the case of “V-P-C-V-R-E-N-N-S-S-R-C-W-V-A-L [SEQ ID NO: 8]”, the AMLVpp % inh in experiment [1] was 14%. Moreover, the HCVpp % inh in the experiment with HCV pseudoparticles is given as −22%.
For “V-V-D-V-Q-Y-L-Y-G-I-G-S-A-V-V-S [SEQ ID NO: 75]”, the AMLVpp % inh in experiment [1] came to 44%. Further, the HCVpp % inh in the experiment with HCV pseudoparticles was determined as 39%.
In the same order, the values of “V-V-V-G-T-T-D-R-F-G-V-P-T-Y-S-W [SEQ ID NO: 49]” are −22% and 37%.
Turning to “V-Y-E-A-A-D-M-I-M-H-T-P-G-C-V-P [SEQ ID NO: 6]”, in experiment [1], the AMLVpp % inh is 10%. Besides, in the experiment with HCV pseudoparticles, the HCVpp % inh is reported as −13%.
In the case of “W-F-G-C-T-W-M-N-S-T-G-F-T-K-T-C (WFGCTWMNSTGFTKTC; HCV peptide) [SEQ ID NO: 54]”, in experiment [1], the AMLVpp % inh was −15%. The HCVpp % inh in the experiment on HCV pseudoparticles is listed as 39%.
With “W-G-V-L-A-G-L-A-Y-Y-S-M-V-G-N-W [SEQ ID NO: 26]”, the AMLVpp % inh in experiment [1] stood at 27%. Also, the HCVpp % inh in the experiment with HCV pseudoparticles turned out to be 50%.
Regarding “Y-C-F-T-P-S-P-V-V-V-G-T-T-D-R-F (YCFTPSPVVVGTTDRF; not fully specified (C-terminus); printed as Y-C-F-T-P-S-P-V-V-V-G-T-T-D-R-F) [SEQ ID NO: 48]”, the AMLVpp % inh in experiment [1] was 21%. Further, in the experiment on HCV pseudoparticles, the HCVpp % inh was found to be 6%.
Take “Y-E-V-R-N-V-S-G-V-Y-H-V-T-N-D-C [SEQ ID NO: 3]”: the AMLVpp % inh in experiment [1] was 18%. Besides, in the experiment on HCV pseudoparticles, the HCVpp % inh is 35%.
As to “Y-G-I-G-S-A-V-V-S-F-A-I-K-W-E-Y [SEQ ID NO: 76]”, the AMLVpp % inh in experiment [1] was found to be 24%. The HCVpp % inh with HCV pseudoparticles was 7%.
Turning to “Y-V-G-D-L-C-G-S-V-F-L-V-A-Q-L-F [SEQ ID NO: 15]”, in experiment [1], the AMLVpp % inh is reported as −31%. Moreover, the HCVpp % inh with HCV pseudoparticles worked out at 16%.

Values taken from patent publication US20100119483A1, “PEPTIDE VIRAL ENTRY INHIBITORS” (Schering Corporation, priority 2004, published 2010).
